Activity calls are given as the source filed them. The rule behind the calls is not given here.
Experiments:
[1] = molecular target: T1, 5-hydroxytryptamine receptor 1A (Rattus norvegicus, UniProt P19327); test: Binding affinity to the rat 5-hydroxytryptamine 1A receptor
T1 sequence (P19327 whole entry): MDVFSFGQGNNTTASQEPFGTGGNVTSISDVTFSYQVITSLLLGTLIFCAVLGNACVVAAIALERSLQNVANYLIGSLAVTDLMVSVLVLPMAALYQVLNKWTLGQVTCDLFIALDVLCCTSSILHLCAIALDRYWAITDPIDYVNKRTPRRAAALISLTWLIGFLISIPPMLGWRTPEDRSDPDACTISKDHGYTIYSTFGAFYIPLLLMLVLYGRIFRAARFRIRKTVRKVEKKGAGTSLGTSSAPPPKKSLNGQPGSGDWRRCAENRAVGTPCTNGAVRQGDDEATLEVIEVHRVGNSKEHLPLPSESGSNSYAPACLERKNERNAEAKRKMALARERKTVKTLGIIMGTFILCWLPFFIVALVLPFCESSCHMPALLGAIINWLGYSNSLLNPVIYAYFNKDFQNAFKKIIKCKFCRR

[2] = molecular target: 5-hydroxytryptamine receptor 7 (Rattus norvegicus, UniProt P32305); test: Binding affinity to the rat 5-hydroxytryptamine 7 receptor
[3] = molecular target: D(3) dopamine receptor (Rattus norvegicus, UniProt P19020); test: Binding affinity of compound was tested for Dopamine receptor D3
[4] = molecular target: T2, D(4) dopamine receptor (Homo sapiens, UniProt P21917); test: Binding affinity of compound was tested for Dopamine receptor D4
T2 sequence (P21917 whole entry): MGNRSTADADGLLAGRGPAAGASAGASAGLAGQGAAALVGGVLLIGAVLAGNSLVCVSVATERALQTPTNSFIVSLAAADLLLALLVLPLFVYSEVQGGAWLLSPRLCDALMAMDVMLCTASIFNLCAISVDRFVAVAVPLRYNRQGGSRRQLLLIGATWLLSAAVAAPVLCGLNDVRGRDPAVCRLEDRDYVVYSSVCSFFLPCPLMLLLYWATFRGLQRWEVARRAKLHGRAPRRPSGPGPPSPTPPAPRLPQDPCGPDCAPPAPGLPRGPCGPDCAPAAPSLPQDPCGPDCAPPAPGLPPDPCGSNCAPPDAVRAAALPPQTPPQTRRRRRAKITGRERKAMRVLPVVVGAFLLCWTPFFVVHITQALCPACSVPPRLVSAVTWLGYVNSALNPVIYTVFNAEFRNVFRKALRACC

[5] = molecular target: T3, Adrenergic receptor alpha-1 (Rattus norvegicus, UniProt P15823+P23944+P43140); test: Binding affinity of compound was tested for Alpha-1 adrenergic receptor; assay type: protein assay
T3 sequence (P15823 whole entry): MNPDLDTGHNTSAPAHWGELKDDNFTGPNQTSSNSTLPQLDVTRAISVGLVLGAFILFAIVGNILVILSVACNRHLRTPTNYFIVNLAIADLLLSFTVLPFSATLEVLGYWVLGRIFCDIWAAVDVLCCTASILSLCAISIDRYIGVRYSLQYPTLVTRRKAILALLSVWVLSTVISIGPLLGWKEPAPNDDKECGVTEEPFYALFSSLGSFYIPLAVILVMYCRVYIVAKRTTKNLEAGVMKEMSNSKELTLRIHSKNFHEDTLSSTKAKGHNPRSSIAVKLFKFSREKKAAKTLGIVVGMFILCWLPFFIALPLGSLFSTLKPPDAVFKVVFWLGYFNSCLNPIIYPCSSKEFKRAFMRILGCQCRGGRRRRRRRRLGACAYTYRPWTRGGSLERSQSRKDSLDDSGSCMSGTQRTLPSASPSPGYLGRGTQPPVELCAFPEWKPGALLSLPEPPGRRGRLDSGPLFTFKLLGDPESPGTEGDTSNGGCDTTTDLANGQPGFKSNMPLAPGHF
T3 sequence (P23944 whole entry): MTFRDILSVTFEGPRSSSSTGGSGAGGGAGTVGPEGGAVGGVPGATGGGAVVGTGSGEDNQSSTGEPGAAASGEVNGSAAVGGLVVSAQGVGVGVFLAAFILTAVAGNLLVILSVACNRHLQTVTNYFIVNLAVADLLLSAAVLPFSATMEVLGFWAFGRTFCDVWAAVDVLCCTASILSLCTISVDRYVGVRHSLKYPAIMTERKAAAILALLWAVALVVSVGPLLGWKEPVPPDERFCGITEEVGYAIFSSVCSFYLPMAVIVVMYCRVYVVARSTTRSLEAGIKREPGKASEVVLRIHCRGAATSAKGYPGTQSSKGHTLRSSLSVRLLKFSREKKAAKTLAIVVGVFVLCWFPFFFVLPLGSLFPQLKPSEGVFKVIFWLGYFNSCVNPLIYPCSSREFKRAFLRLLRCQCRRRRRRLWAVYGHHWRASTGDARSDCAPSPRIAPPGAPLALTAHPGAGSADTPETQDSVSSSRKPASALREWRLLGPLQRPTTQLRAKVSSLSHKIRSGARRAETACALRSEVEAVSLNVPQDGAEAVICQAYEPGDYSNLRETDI
T3 sequence (P43140 whole entry): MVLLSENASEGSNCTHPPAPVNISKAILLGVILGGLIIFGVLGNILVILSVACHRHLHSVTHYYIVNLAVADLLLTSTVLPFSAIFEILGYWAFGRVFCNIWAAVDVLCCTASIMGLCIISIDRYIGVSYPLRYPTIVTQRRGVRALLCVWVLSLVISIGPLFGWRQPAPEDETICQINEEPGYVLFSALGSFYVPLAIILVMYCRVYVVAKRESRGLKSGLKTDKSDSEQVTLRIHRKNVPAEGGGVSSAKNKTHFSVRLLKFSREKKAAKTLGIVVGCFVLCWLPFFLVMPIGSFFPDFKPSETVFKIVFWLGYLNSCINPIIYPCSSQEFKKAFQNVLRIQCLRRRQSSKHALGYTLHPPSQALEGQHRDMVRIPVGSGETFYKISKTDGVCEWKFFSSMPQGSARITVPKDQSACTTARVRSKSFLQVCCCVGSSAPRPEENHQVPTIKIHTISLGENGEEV

[6] = tested on: 5-hydroxytryptamine receptor 7 (Cavia porcellus); test: Maximal relaxation effect induced by 3 uM compound on substance P stimulated guinea pig ileum with 5-hydroxytryptamine 7 receptor desensitization
[7] = molecular target: D(2) dopamine receptor (Homo sapiens, UniProt P14416); test: Binding affinity of compound was tested for Dopamine receptor D2L
[8] = molecular target: 5-hydroxytryptamine receptor 2A (Rattus norvegicus, UniProt P14842); test: Binding affinity of compound was tested for 5-hydroxytryptamine 2A receptor
[9] = tested on: 5-hydroxytryptamine receptor 7 (Cavia porcellus); test: Maximal relaxation effect induced by 3 uM compound on substance P stimulated guinea pig ileum with 5-hydroxytryptamine 7 receptor nondesensitization
[10] = molecular target: 5-hydroxytryptamine receptor 7 (Rattus norvegicus) (UniProt P32305); settings: Ileum
[11] = molecular target: 5-hydroxytryptamine receptor 7 (Rattus norvegicus) (UniProt P32305); settings: Ileum; remark: listed apart in the source
Description: Maximal relaxation effect induced by 3 uM compound on substance P stimulated guinea pig ileum with 5-hydroxytryptamine receptor desensitization

Chain of 5-hydroxytryptamine receptor 7 (P32305 whole entry): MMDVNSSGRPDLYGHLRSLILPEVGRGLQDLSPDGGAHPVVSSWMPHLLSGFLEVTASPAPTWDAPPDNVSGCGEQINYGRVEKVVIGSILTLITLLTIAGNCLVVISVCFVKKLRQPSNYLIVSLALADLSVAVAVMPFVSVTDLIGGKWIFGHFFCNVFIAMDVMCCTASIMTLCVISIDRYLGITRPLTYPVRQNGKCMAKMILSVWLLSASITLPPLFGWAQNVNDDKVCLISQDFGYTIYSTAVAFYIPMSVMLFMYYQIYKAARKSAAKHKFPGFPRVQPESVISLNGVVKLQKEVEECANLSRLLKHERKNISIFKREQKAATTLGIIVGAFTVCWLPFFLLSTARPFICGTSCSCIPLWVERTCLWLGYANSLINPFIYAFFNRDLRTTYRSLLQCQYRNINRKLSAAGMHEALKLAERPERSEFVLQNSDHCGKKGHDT
Chain of D(2) dopamine receptor (P14416 whole entry): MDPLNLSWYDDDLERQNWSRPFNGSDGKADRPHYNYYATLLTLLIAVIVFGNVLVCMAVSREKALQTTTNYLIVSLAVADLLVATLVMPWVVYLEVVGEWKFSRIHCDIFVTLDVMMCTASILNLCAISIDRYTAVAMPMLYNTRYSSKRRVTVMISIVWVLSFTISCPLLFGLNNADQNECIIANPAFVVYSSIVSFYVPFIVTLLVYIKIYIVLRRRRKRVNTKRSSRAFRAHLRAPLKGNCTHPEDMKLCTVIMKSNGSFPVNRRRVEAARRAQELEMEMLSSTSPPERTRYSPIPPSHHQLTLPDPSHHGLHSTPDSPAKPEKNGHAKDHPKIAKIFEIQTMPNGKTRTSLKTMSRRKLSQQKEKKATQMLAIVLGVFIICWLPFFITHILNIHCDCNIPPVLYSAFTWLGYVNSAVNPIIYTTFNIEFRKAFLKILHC
Chain of 5-hydroxytryptamine receptor 2A (P14842 whole entry): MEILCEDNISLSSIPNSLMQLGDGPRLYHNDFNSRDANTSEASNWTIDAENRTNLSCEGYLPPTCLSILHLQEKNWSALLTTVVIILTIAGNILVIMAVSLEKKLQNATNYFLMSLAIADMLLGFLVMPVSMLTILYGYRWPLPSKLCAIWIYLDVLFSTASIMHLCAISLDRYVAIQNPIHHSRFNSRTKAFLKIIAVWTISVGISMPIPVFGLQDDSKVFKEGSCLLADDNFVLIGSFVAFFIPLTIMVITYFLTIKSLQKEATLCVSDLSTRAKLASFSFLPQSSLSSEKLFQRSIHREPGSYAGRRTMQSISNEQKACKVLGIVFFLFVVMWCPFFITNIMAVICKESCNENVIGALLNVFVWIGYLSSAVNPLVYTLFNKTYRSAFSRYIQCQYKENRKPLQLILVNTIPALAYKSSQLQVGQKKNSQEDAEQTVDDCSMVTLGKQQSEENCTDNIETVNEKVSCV
Chain of 5-hydroxytryptamine receptor 7 (Rattus norvegicus) (P32305 whole entry): as the sequence (P32305 whole entry) above
Chain of D(3) dopamine receptor (P19020 whole entry): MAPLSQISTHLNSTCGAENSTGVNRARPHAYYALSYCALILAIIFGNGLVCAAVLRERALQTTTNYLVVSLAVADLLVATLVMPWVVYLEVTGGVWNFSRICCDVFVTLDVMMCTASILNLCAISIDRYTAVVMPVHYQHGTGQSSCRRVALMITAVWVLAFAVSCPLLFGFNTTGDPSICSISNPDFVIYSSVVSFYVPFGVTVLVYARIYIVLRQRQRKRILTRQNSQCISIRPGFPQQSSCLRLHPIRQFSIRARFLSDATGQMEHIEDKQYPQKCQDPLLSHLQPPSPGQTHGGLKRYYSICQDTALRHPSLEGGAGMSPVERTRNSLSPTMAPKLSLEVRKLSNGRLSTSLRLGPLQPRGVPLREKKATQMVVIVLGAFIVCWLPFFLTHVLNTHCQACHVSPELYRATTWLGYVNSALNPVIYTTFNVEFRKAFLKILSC

Compound	Ki [1]	Ki [2]	further results
CN1CCN(CCCCCC(=O)c2ccccc2O)CC1	> 850 nM	> 1000 nM	–
COc1cccc(C(=O)CCCCCN2CCN(c3ccccc3OC)CC2)c1	3.4 nM	46 nM	–
COc1ccccc1N1CCN(CCCCC(=O)c2cccc(O)c2)CC1	3.7 nM	15 nM	–
O=C(CCCN1CCN(c2noc3ccccc23)CC1)c1ccccc1O	1060 nM	19.5 nM	–
COc1ccc2onc(N3CCN(CCCCCC(=O)c4ccccc4O)CC3)c2c1	389 nM	462 nM	–
O=C(CCCCCN1CCN(c2nc3ccccc3[nH]2)CC1)c1ccccc1O	> 850 nM	682 nM	–
COc1cccc(C(=O)CCCN2CCN(c3ccccc3OC)CC2)c1	0.78 nM	109 nM	–
O=C(CCCCCN1CCN(c2noc3ccccc23)CC1)c1ccccc1O	189 nM	2.93 nM	Ki [3]: 361 nM; Ki [4]: 318 nM; Ki [5]: 96 nM; Relaxation [6]: inactive; Ki [7]: 246 nM; Ki [8]: 7.97 nM; Relaxation [9]: 43%
COc1ccccc1N1CCN(CCCCCC(=O)c2ccccc2)CC1	6.4 nM	28.4 nM	–
COc1ccccc1N1CCN(CCCCC(=O)c2ccc(O)cc2)CC1	20 nM	59.1 nM	–
O=C(CCCCCN1CCN(c2cccc(C(F)(F)F)c2)CC1)c1ccccc1O	282 nM	384 nM	–
COc1ccccc1C(=O)CCCCCN1CCN(c2noc3ccccc23)CC1	175 nM	0.9 nM	Relaxation [10]: inactive; Ki [3]: 54.9 nM; Ki [4]: 3.94 nM; Ki [5]: 0.41 nM; Ki [7]: 78.1 nM; Ki [8]: 9.03 nM
COc1ccccc1N1CCN(CCCCCC(=O)c2cccc(O)c2)CC1	24 nM	26.8 nM	–
COc1cccc(C(=O)CCCCN2CCN(c3ccccc3OC)CC2)c1	3.4 nM	85 nM	–
O=C(CCCCCN1CCN(c2ccccc2)CC1)c1ccccc1O	137 nM	43 nM	–
NCCc1c[nH]c2ccc(C(N)=O)cc12	–	0.51 nM	Relaxation [11]: inactive
O=C(CCCCN1CCN(c2noc3ccccc23)CC1)c1ccccc1O	919 nM	52 nM	–
COc1ccccc1N1CCN(CCCCC(=O)c2ccccc2)CC1	7 nM	43.5 nM	–
O=C(CCCCCN1CCN(c2ccccn2)CC1)c1ccccc1O	56 nM	105 nM	–
O=C(CCCCCN1CCN(c2nc3ccccc3o2)CC1)c1ccccc1O	1460 nM	148 nM	–
COc1ccccc1N1CCN(CCCCC(=O)c2ccccc2O)CC1	4.1 nM	16.4 nM	–
COc1ccccc1N1CCN(CCCCCC(=O)c2ccccc2O)CC1	5.8 nM	5.8 nM	–
COc1ccccc1N1CCN(CCCCCC(=O)c2ccc(O)cc2)CC1	14 nM	23.7 nM	–
O=C(CCCCCN1CCN(C2CCCCC2)CC1)c1ccccc1O	> 850 nM	> 800 nM	–

Reference: ChEMBL document CHEMBL1145970 (J Med Chem, 2003)
